1 molecule from patent publication US4985433A, “2-amino-7-(pyridinylmethyl)-3H,5H-pyrrolo[3,2-d]pyrimidin-4-ones and pharmaceutical uses and compositions containing the same” (BioCryst, Inc., priority 1989, dated 1991) can be followed below.

The test system of this experiment is plasma inosine. Put plainly: Plasma inosine after intraperitoneal injection in Lewis Rats (HPLC of plasma extract). Particulars: intraperitoneal injection in aqueous carrier with ten percent DMSO, 30 mg twice per day, versus vehicle controls, plasma taken at specific times after administration. The format is in vivo. On the procedure:
A pharmaceutical composition for intraperitoneal injection is prepared for testing the compound (IA). An intraperitoneal injection solution containing the compound of Example 8 is dissolved in an aqueous carrier that contains ten percent DMSO.
The compound (IA) is intraperitoneally injected into Lewis Rats via the test composition of Example 21 to provide 30 mg of the compound (IA), with an injection given twice per day. Controls are used, which receive only the vehicle. At specific times after administration, the animals are sacrificed and plasma samples are prepared. The plasma is extracted with cold 0.5N HClO4 and neutralized with solid NH4 HCO3. After removal of perchlorate salts, the extract is subjected to HPLC on a reversed phase column (Spherisorb ODSI).
Compounds prepared as in Examples 10-20 are each made into a pharmaceutical formulation in accordance with the preparation of Example 21 and the resultant injectable solutions are tested in accordance with the procedure of Example 22.

In the case of `Nc1nc2c(Cc3cccnc3)c[nH]c2c(=O)[nH]1` [compound (IA), 2-amino-7-(3-pyridinylmethyl)-3H,5H-pyrrolo[3,2-d]pyrimidin-4-one], the plasma inosine result is on record as “significant increase”.
